{
  "source": "patent US10357485B1",
  "about": "“Anti-cancer compound” (KING SAUD UNIVERSITY, priority 2018, dated 2019)",
  "format_in_all_cases": "cell-based, human",
  "key": {"[1]": {"test_system": "MCF7 cells", "test": "MTT cytotoxicity assay on MCF7 cells", "conditions": "MCF7, 1-20 μM, 24 and 48 hours", "experimental": "(§1) As described in detail herein, a cytotoxicity assay of compound 4 was performed on four human cancer cell lines—JURKAT, NCI-H460, HCT116 and MCF7—with camptothecin (CPT) as a positive control. The inhibitory effects of compound 4 on JURKAT, NCI-H460, HCT116 and MCF7 cancer cells were determined by an MTT (3-[4,5-dimethylthiazol-2-yl]-2,5 diphenyltetrazolium bromide) assay. The cancer cells were exposed to compound 4 at various concentrations of 1, 5, 10, 15, and 20 μM for different incubation periods of 24 h and 48 h. […] The stock solutions of 1 mM compound 4 and camptothecin (40 μM) were prepared, respectively, in DMSO. Further dilutions of 1, 5, 10, 15, and 20 μM were made in Dulbecco's Modified Eagle's Medium (DMEM) for treatment of cancer cells. […] Adherent cells were trypsinized, counted and seeded in 96-well plates for viability studies. […] JURKAT cells were washed with D-PBS, counted and seeded in 96-well plates for viability studies. Cytotoxicity of compound 4 for JURKAT cells was determined by 3-(4,5-dimethylthiazol-2-yl)-2,5-diphenyltetrazolium bromide (MTT) assay. […] The MTT assay was performed according to manufacturer instructions and absorbance of the treated and untreated cells were measured in a microplate reader at 570 nm wavelength. […]"}, "[2]": {"test_system": "JURKAT cells", "test": "DNA fragmentation by TUNEL assay", "conditions": "48 h, 10.33 μM", "source_text": "DNA fragmentation is a key feature of apoptosis, and is largely due to activation of endogenous endonucleases that induce cleavage of chromatin DNA into internucleosomal fragments of roughly 180 base pairs. Apoptosis can be qualitatively assessed by monitoring DNA fragmentation trends, for instance, using terminal deoxynucleotidyl transferase dUTP nick end labeling (TUNEL) assay. For untreated […] cells, TUNEL assay results indicated a constant base line of TUNEL-positive cells. […] DNA fragmentation was monitored in treated, control treated and untreated JURKAT cells to identify stages of apoptosis. […] Supernatant and adherent cells were collected in a centrifuge tube and then washed twice with PBS. The cells were fixed with 70% ice-cold ethanol by incubating at -20° C. for 30 min. The fixed cells were resuspended in wash buffer, and then washed twice by centrifugation. 50 μl of DNA labeling solution was added to each cell pellet. The cell pellets were incubated with the DNA labeling solution at 37° C. for 60 min. The cell pellets were rinsed with rinse buffer and then resuspended with 0.5 ml of PI/RNase Staining Buffer and incubated for 30 min at RT. Flow cytometry was performed to detect DNA fragmentation (BD FACS Calibur, San Jose, Calif., USA)."}, "[3]": {"test_system": "NCI-H460 cells", "test": "MTT cytotoxicity assay on NCI-H460 cells", "conditions": "NCI-H460, 1-20 μM, 24 and 48 hours", "experimental": "as §1"}, "[4]": {"test_system": "Caspase-3 in JURKAT cells", "test": "Caspase-3 expression assay, FITC staining, flow cytometry", "conditions": "48 h, 10.33 μM, CPT 40 μM", "experimental": "Caspase-3 expression was measured using FITC staining. […] Apoptotic caspases are believed to be activated in a protease cascade in which the activated apical caspases responding to apoptotic stimuli directly activate the executioner (effector) caspases in a precisely controlled process. Among these effector caspases, caspase-3, a member of the cysteine protease family, plays a central role in the execution phase of both intrinsic (mitochondrial) and extrinsic (death receptor) pathways of apoptosis by cleaving many key cellular proteins, such as poly (ADP ribose) polymerase (PARP), inhibitor of caspase-activated DNase (ICAD), and several others. Briefly, JURKAT cells (1×10^6 cells/well) were seeded in a 6-well plate. […] The JURKAT cells were harvested and then fixed with 70% ice-cold ethanol followed by incubation at −20° C. for 30 min. The fixed JURKAT cells were washed twice with PBS and treated with 20 μl of Caspase-3-FITC (BD Biosciences) and incubated for 60 min at room temperature in dark conditions. Cells were washed with PBS and resuspended in 0.5 ml of PBS, before analysis for Caspase-3 expression using BD FACS Callibur (San Jose, Calif., USA)."}, "[5]": {"test_system": "JURKAT cells", "test": "Cell cycle analysis, propidium iodide staining, flow cytometry", "conditions": "48 h, 10.33 μM", "experimental": "Therefore, interruption of cell cycle progression is an important target for cancer treatment. JURKAT cells were treated with compound 4 for 48 h and stained with propidium iodide to determine the proportion of cells undergoing apoptosis or cell death as analyzed by flow cytometry. […] The percentage of compound 4-treated cells decreased in G0/G1 and G2/M phase. […] Checkpoints are the pathways that halt progression of the cell cycle in response to cellular stress. Targeting checkpoint pathways are potential anti-cancer strategies because abrogation of checkpoint function drives tumor cells toward apoptosis and enhances the efficacy of oncotherapy. The cell cycle phase evaluation was performed as described by […] et al. (2007). Jurkat cells were plated at 1×10^6 cells/well in a six-well plate for 12 h and then cells were exposed with compound-4 in serum-free media and incubated for an additional 48 h. […] Following trypsinization, cells were centrifuged at 1000×g for 10 min, and the pellet was resuspended in PBS. Fixation was completed by adding 70% cold ethanol for at least 2 h. The fixed cells were centrifuged at 1000 g for 10 min, and the pellet suspended in PBS. After 60 s, the cells were centrifuged as before, and the pellet resuspended in 1 ml of propidium iodide (PI) staining solution. Immediately after 15 min incubation at 37° C., the cells were analyzed to determine the cell cycle stage using flow cytometry (BD FACS Calibur, San Jose, Calif., USA) with an excitation wavelength of 488 nm and an emission at 670 nm using the Cell Quest software for analysis. The data presented represent at least three independent experiments conducted in triplicate (N=3)."}, "[6]": {"test_system": "JURKAT cells", "test": "MTT cytotoxicity assay on JURKAT cells", "conditions": "for IC50: Homo sapiens, JURKAT cells", "experimental": "As described in detail herein, a cytotoxicity assay of compound 4 was performed on four human cancer cell lines—JURKAT, NCI-H460, HCT116 and MCF7—with camptothecin (CPT) as a positive control. The inhibitory effects of compound 4 on JURKAT, NCI-H460, HCT116 and MCF7 cancer cells were determined by an MTT (3-[4,5-dimethylthiazol-2-yl]-2,5 diphenyltetrazolium bromide) assay. The cancer cells were exposed to compound 4 at various concentrations of 1, 5, 10, 15, and 20 μM for different incubation periods of 24 h and 48 h. […] The stock solutions of 1 mM compound 4 and camptothecin (40 μM) were prepared, respectively, in DMSO. Further dilutions of 1, 5, 10, 15, and 20 μM were made in Dulbecco's Modified Eagle's Medium (DMEM) for treatment of cancer cells. MCF-7 (human breast cancer); HCT116 (human colon cancer); NCI-H460 (human non-small lung cancer); and JURKAT (human T-cell lymphoma) cell lines were obtained from the National Centre for Cell Science (NCCS, Pune, India). All cells were cultured in DMEM—except JURKAT cells, which were cultured in RPMI media—and supplemented with 10% fetal bovine serum (HiMedia, India) with penicillin (100 I.U/mL) and streptomycin (100 μg/mL) at 37° C. in a humidified atmosphere of 5% CO2 in air. Cultured cells of 75-85% confluency were used for the assays. Adherent cells were trypsinized, counted and seeded in 96-well plates for viability studies. Cells were allowed to adhere overnight before treatment in the experiments. JURKAT cells were washed with D-PBS, counted and seeded in 96-well plates for viability studies. Cytotoxicity of compound 4 for JURKAT cells was determined by 3-(4,5-dimethylthiazol-2-yl)-2,5-diphenyltetrazolium bromide (MTT) assay. In brief, cells were seeded with different concentrations of compound 4—specifically 1, 5, 10, 15, and 20 μM—in 96 wells plate at a density of 20000 cells per well and incubated for 24 h and 48 h at 37° C., in a CO2 incubator. The MTT assay was performed according to manufacturer instructions and absorbance of the treated and untreated cells were measured in a microplate reader at 570 nm wavelength. Results were represented as percentage of viability={[A570 (treated cells)−background]/[A570 (untreated cells)−background]}×100. Each treatment was performed in triplicate (N=3)."}, "[7]": {"test_system": "HCT116 cells", "test": "MTT cytotoxicity assay on HCT116 cells", "conditions": "HCT116, 1-20 μM, 24 and 48 hours", "experimental": "as §1"}, "[8]": {"test_system": "JURKAT cells", "test": "Mitochondrial membrane potential (ΔΨm) assay, JC-1 staining", "conditions": "48 h, 10.33 μM", "experimental": "Mitochondrial membrane depolarization is an early event in apoptosis. Chemotherapeutic agents usually induce apoptosis via the mitochondrial pathway. Evaluation of the effect of compound 4 treatment on mitochondrial membrane depolarization was determined using flow cytometry after staining with mitochondrial potential-sensitive dye JC-1. […] Mitochondrial membrane potential (ΔΨm) was determined using JC-1, a fluorescent carbocyanine dye (Smiley et al., 1991). Briefly, JURKAT cells (1×10^6 cells/well) were seeded in a 6-well plate. […] Each of the cell pellets were incubated with 2.5 μM JC-1 for 15 min at 37° C. in darkness. Subsequently, stained cells were washed with PBS, followed by FACS analysis (BD FACS Calibur, San Jose, Calif., USA)."}, "[9]": {"test_system": "JURKAT cells", "test": "FITC Annexin V/PI apoptosis assay by flow cytometry", "conditions": "48 h of treatment, compound 4 at 10.33 μM", "experimental": "To determine whether the antiproliferative effect of compound 4 can trigger cell apoptosis, the percentage of JURKAT cells undergoing apoptosis was determined by flow cytometric analysis after the cells were stained with FITC Annexin V and proidium iodide (PI). […] As depicted in FIGS. 6A-6G, after 48 h of treatment with compound 4, a significant accumulation of AnnexinV^+ was observed, relative to CTP treated cells. 45.21% and 12.54% of cells were determined to be in early apoptosis (AnnexinV^+) when treated with compound 4 and CTP, respectively. Similarly, 46.32% and 14.33% of cells were determined to be in late apoptosis (AnnexinV^+, PI^+) when treated with compound 4 and CTP, respectively. Apoptosis assay was performed using FITC Annexin V Apoptosis Detection Kit I (BD Biosciences, San Jose, Calif., USA). The fluorescence intensities of FITC-conjugated Annexin V and PI in compound 4 treated, control treated and untreated cells were analyzed using flow cytometry. Briefly, JURKAT cells (1×10^6 cells/well) were seeded in a 6-well plate. […] Following trypsinization, cells were centrifuged at 1000×g for 10 min, and the pellet was gently resuspended in 100 μL FITC Annexin V binding buffer and then incubated with 5 μL of FITC Annexin V in the dark for 10 min at 25° C. The cells were then centrifuged at 2000 rpm for 5 min, gently resuspended in 500 μL of FITC Annexin V binding buffer and 5 μL of PI was added in an ice bath, followed by flow cytometry (BD FACS Calibur, San Jose, Calif., USA) the apoptotic cells were analyzed using Cell Quest software."}},
  "note": "Where two headings read alike, the source gives them in different places.",
  "data": [
    {"smiles": "O=C1/C(=C/c2ccc(Br)cc2)CN2CC13C(c1ccc(Br)cc1)C1Cc4ccccc4CN1C31c3cccc4cccc(c34)[C@@]21O", "note": "(some centres unmarked) [compound 4]", "values": [
      {"measurement": "Proliferation of the cancer cells", "setting": "[1]", "result": "significantly inhibited in a concentration-dependent manner"},
      {"measurement": "number of TUNEL-positive cells compared with untreated or control cells", "setting": "[2]", "result": "significant increase"},
      {"measurement": "DNA fragmentation relative to CTP (control) treated cells", "setting": "[2]; CPT 40 μM", "result": "increased DNA fragmentation"},
      {"measurement": "Proliferation of the cancer cells", "setting": "[3]", "result": "significantly inhibited in a concentration-dependent manner"},
      {"measurement": "caspase-3 expression compared with CPT control treated cells", "setting": "[4]", "result": "higher caspase-3 expression"},
      {"measurement": "percentage of cells in G0/G1 phase", "setting": "[5]", "result": "decreased"},
      {"measurement": "percentage of cells in G2/M phase", "setting": "[5]", "result": "decreased"},
      {"measurement": "percentage of cells in S phase compared to untreated cells", "setting": "[5]", "result": "significantly increased"},
      {"measurement": "percentage of cells in sub G0/G1 phase compared to untreated cells", "setting": "[5]", "result": "moderately increased"},
      {"measurement": "IC50", "setting": "[6]; MTT, 24 h, read-out: IC50 (half maximal inhibitory concentration)", "result": 15.6, "unit": "µM"},
      {"measurement": "IC50", "setting": "[6]; MTT, 48 h, read-out: IC50 (half maximal inhibitory concentration)", "result": 10.3, "unit": "µM"},
      {"measurement": "Proliferation of the cancer cells", "setting": "[6]; JURKAT, 1-20 μM, 24 and 48 hours", "result": "significantly inhibited in a concentration-dependent manner"},
      {"measurement": "Inhibition compared to positive control CPT (40 μM)", "setting": "[6]; compound 4 at 15 μM and 20 μM", "result": "higher inhibition"},
      {"measurement": "Proliferation of the cancer cells", "setting": "[7]", "result": "significantly inhibited in a concentration-dependent manner"},
      {"measurement": "mitochondrial membrane potential (ΔΨm) compared to control (untreated) cells", "setting": "[8]", "result": "Significant decrease"},
      {"measurement": "cells in early apoptosis (AnnexinV+)", "setting": "[9]", "result": 45.21, "unit": "%"},
      {"measurement": "cells in late apoptosis (AnnexinV+, PI+)", "setting": "[9]", "result": 46.32, "unit": "%"}
    ]},
    {"smiles": "CC[C@@]1(O)C(=O)OCc2c1cc1n(c2=O)Cc2cc3ccccc3nc2-1", "note": "[CPT, camptothecin, reference compound]", "values": [
      {"measurement": "IC50", "setting": "[6]; given as treatment concentration, time not stated, read-out: IC50 of CPT as stated in the methods", "result": 40, "unit": "µM"},
      {"measurement": "cells in early apoptosis (AnnexinV+)", "setting": "[9]", "result": 12.54, "unit": "%"},
      {"measurement": "cells in late apoptosis (AnnexinV+, PI+)", "setting": "[9]", "result": 14.33, "unit": "%"}
    ]}
  ]
}
